Measured values as given in PubChem BioAssay (NCI).
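Values below derive from 48-hour exposures of cells grown in 96-well plates, with endpoints linearly interpolated between the two concentrations bracketing the appropriate inhibition level. At the GI50, growth is halved. TGI marks complete inhibition of growth.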

Assays:
Assay in all cases: NCI anticancer screen, dose series, 48 h
[1] = system: A498 renal
[2] = system: K-562 leukemia
[3] = system: MCF7 breast
[4] = system: MOLT-4 leukemia
[5] = system: NCI-H23 lung
[6] = system: NCI-H460 lung
[7] = system: NCI/ADR-RES ovarian
[8] = system: PC-3 prostate
[9] = system: UO-31 renal
[10] = system: EKVX NSCLC

What does the source list for `CN(CCCNC(=O)c1nn(-c2ccccc2)c2c1Cc1ccccc1-2)CCCNC(=O)c1nn(-c2ccccc2)c2c1Cc1ccccc1-2`?
TGI [1]: 3.15 µM; TGI [2]: 2.17 µM; TGI [3]: 2.99 µM; TGI [4]: 2.95 µM; TGI [5]: 3.03 µM; TGI [6]: 3.26 µM; TGI [7]: 3.37 µM; TGI [8]: 3.09 µM; TGI [9]: 3.29 µM

`Nc1csc(-c2scc3c2OCCO3)c1N` was tested. Which TGI [1] did it give?
Its TGI is 36.6 µM.

And the TGI [10]?
Its TGI is 72.3 µM.

And the TGI [2]?
The TGI was 87.4 µM.

What about the TGI [3] of the same molecule?
Its TGI is 33.4 µM.

And the TGI [4]?
The TGI was over 100 µM.

What about the TGI [5] of the same molecule?
Its TGI is 35.6 µM.

And the TGI [6]?
The TGI was 73.7 µM.

And the TGI [7]?
Its TGI is 61.7 µM.

And the TGI [8]?
Its TGI is 62.5 µM.

What about the TGI [9] of the same molecule?
Its TGI is 33.4 µM.

How did the TGI [1] turn out when `COc1ccc2c3c([nH]c2c1)[C@H](C=C(C)C)N1C(=O)[C@@H]2CCCN2C(=O)[C@@H]1C3` was run?
Its TGI is over 100 µM.

What about the TGI [10] of the same molecule?
Its TGI is over 100 µM.

And the TGI [2]?
Its TGI is over 100 µM.

What about the TGI [3] of the same molecule?
Its TGI is over 100 µM.

And the TGI [4]?
Its TGI is over 100 µM.

And the TGI [5]?
The TGI was over 100 µM.

And the TGI [6]?
The TGI was over 100 µM.

What about the TGI [7] of the same molecule?
The TGI was over 100 µM.

And the TGI [8]?
The TGI was over 100 µM.

And the TGI [9]?
Its TGI is over 100 µM.

Which results are given for `CC(C)(C)COS(=O)OCC(C)(C)C`?
TGI [1]: > 100 µM; TGI [10]: > 100 µM; TGI [2]: > 100 µM; TGI [3]: > 100 µM; TGI [4]: > 100 µM; TGI [5]: > 100 µM; TGI [6]: > 100 µM; TGI [7]: > 100 µM; TGI [8]: > 100 µM; TGI [9]: > 100 µM

Which results are given for `CCC1=C(CC2NCCc3cc(OC)c(OC)cc32)CC2c3ccccc3CCN2C1` (configuration not stated)?
TGI [1]: 28.5 µM; TGI [10]: > 100 µM; TGI [2]: 22 µM; TGI [3]: 42.7 µM; TGI [4]: 43.9 µM; TGI [6]: 25.1 µM; TGI [7]: > 100 µM; TGI [8]: 78.3 µM; TGI [9]: 36.3 µM

For `CC(NC(=O)c1ccc(OP(=O)(OCc2ccc([N+](=O)[O-])o2)N(C)CCCCCl)cc1)c1ccc(OCC2CCCCC2)c(C(N)=O)c1` (configuration not stated), which TGI [1] is on record?
Its TGI is 63.2 µM.

And the TGI [10]?
The TGI was over 100 µM.

What about the TGI [2] of the same molecule?
Its TGI is 18 µM.

What about the TGI [3] of the same molecule?
The TGI was 17.1 µM.

What about the TGI [4] of the same molecule?
The TGI was 6.89 µM.

And the TGI [5]?
The TGI was over 52.2 µM.

What about the TGI [6] of the same molecule?
The TGI was 14.5 µM.

What about the TGI [7] of the same molecule?
Its TGI is over 100 µM.

And the TGI [8]?
The TGI was 49.1 µM.

What about the TGI [9] of the same molecule?
The TGI was 6.39 µM.

Which TGI [10] does the source give for `OC1CCSc2ccccc21` (configuration not stated) here?
Its TGI is over 100 µM.

What about the TGI [2] of the same molecule?
The TGI was over 100 µM.

And the TGI [4]?
The TGI was over 100 µM.

And the TGI [5]?
Its TGI is over 100 µM.

And the TGI [6]?
Its TGI is over 100 µM.

What about the TGI [9] of the same molecule?
The TGI was over 100 µM.

What does the source list for `CS(=O)(=O)Nc1cccc(-c2ccc3ncnc(Nc4cncc(Cl)c4)c3c2)c1`?
GI50 [2]: 2.59 µM; TGI [2]: > 100 µM; GI50 [4]: 2.38 µM; TGI [4]: 7.61 µM; GI50 [5]: 2.51 µM; TGI [5]: 16.9 µM; GI50 [6]: 3.18 µM; TGI [6]: > 100 µM; GI50 [7]: 13.7 µM; TGI [7]: > 100 µM

`CN(CCCN1CCCC1)CCCN(C)C(=O)Cc1ccc(Cl)c(Cl)c1` was tested. Which TGI [1] did it give?
Its TGI is 28.1 µM.

And the TGI [10]?
The TGI was 62.5 µM.

And the TGI [2]?
Its TGI is 18.3 µM.

What about the TGI [3] of the same molecule?
Its TGI is 31.6 µM.

And the TGI [4]?
The TGI was 32.4 µM.

And the TGI [5]?
Its TGI is 54.8 µM.

What about the TGI [6] of the same molecule?
Its TGI is 33.8 µM.

And the TGI [7]?
The TGI was over 100 µM.

And the TGI [8]?
Its TGI is over 74.4 µM.

What about the TGI [9] of the same molecule?
Its TGI is 9.64 µM.

Which results are given for `O=C(NN1CCCCC1)c1cc2cc(CCl)ccc2oc1=O`?
TGI [1]: > 100 µM; TGI [10]: 27.4 µM; TGI [2]: 48.1 µM; TGI [3]: > 100 µM; TGI [4]: 65.5 µM; TGI [5]: 32.5 µM; TGI [6]: 31.1 µM; TGI [7]: 54.2 µM; TGI [8]: 30.4 µM; TGI [9]: 35.3 µM

`CC12OC(C(=O)C13CCC3)C1C(=O)c3c(O)ccc(O)c3C(=O)C12` (configuration not stated) was tested. Which GI50 [1] did it give?
The GI50 was 14.5 µM.

And the TGI [1]?
Its TGI is 29.8 µM.

What about the GI50 [10] of the same molecule?
The GI50 was 9.34 µM.

What about the TGI [10] of the same molecule?
Its TGI is 22.7 µM.

And the GI50 [2]?
Its GI50 is 1.27 µM.

What about the TGI [2] of the same molecule?
The TGI was 10.3 µM.

And the GI50 [3]?
The GI50 was 1.49 µM.

What about the TGI [3] of the same molecule?
The TGI was 6.2 µM.

What about the GI50 [4] of the same molecule?
Its GI50 is 0.123 µM.

And the GI50 [5]?
The GI50 was 0.577 µM.

And the TGI [5]?
Its TGI is 2.15 µM.

And the GI50 [6]?
The GI50 was 7.46 µM.

What about the TGI [6] of the same molecule?
The TGI was 29.3 µM.

And the GI50 [7]?
Its GI50 is 0.69 µM.

And the TGI [7]?
The TGI was 2.63 µM.

And the GI50 [8]?
Its GI50 is 2.72 µM.

What about the TGI [8] of the same molecule?
Its TGI is 9.09 µM.

What about the GI50 [9] of the same molecule?
Its GI50 is 2.82 µM.

What about the TGI [9] of the same molecule?
The TGI was 9.06 µM.

Which results are given for `c1ccc(C[N+]23C(CC[C@H]2c2ccccc2)CC[C@H]3c2ccccc2)cc1` (some centres not stated)?
TGI [1]: > 100 µM; TGI [10]: > 100 µM; TGI [2]: > 100 µM; TGI [3]: > 100 µM; TGI [4]: > 100 µM; TGI [8]: > 100 µM; TGI [9]: > 100 µM

With `COc1cc(S(=O)(=O)Nc2ccc(-c3csc(/N=C\c4cccc(Oc5ccccc5)c4)n3)cc2)ccc1Cl` as the molecule, how does the TGI [10] read?
The TGI was 81.4 µM.

And the TGI [2]?
Its TGI is 77 µM.

And the TGI [3]?
The TGI was 21.1 µM.

What about the TGI [4] of the same molecule?
Its TGI is over 100 µM.

And the TGI [5]?
Its TGI is over 100 µM.

What about the TGI [7] of the same molecule?
The TGI was over 100 µM.

What about the TGI [8] of the same molecule?
Its TGI is over 100 µM.

What about the TGI [9] of the same molecule?
The TGI was over 100 µM.

`COc1cc2cc[n+](C)c(Cc3ccc(Oc4cc(Cc5c6cc(OC)c(OC)cc6cc[n+]5C)ccc4OC)cc3)c2cc1OC` was tested. Which TGI [1] did it give?
Its TGI is over 100 µM.

What about the TGI [10] of the same molecule?
Its TGI is over 100 µM.

What about the TGI [2] of the same molecule?
Its TGI is over 100 µM.

And the TGI [3]?
Its TGI is over 100 µM.

And the TGI [4]?
The TGI was over 100 µM.

What about the TGI [5] of the same molecule?
The TGI was over 100 µM.

What about the TGI [6] of the same molecule?
The TGI was over 100 µM.

And the TGI [8]?
The TGI was over 100 µM.

What about the TGI [9] of the same molecule?
The TGI was over 100 µM.

What does the source list for `Clc1cccc(/C=c2\nc(-c3ccccc3)n3c2nc2ccccc23)c1`?
TGI [1]: > 100 µM; TGI [10]: > 100 µM; TGI [2]: > 100 µM; TGI [3]: > 100 µM; TGI [4]: > 100 µM; TGI [5]: > 100 µM; TGI [6]: > 100 µM; TGI [7]: > 100 µM; TGI [8]: > 100 µM; TGI [9]: > 100 µM

With `Cc1ccc(S(=O)(=O)Nc2cc(=O)[nH]c3c2CCC3)cc1` as the molecule, how does the TGI [1] read?
The TGI was over 100 µM.

What about the TGI [10] of the same molecule?
The TGI was over 100 µM.

And the TGI [2]?
Its TGI is over 100 µM.

What about the TGI [3] of the same molecule?
Its TGI is over 100 µM.

What about the TGI [4] of the same molecule?
Its TGI is over 100 µM.

What about the TGI [5] of the same molecule?
The TGI was over 100 µM.

And the TGI [6]?
Its TGI is over 100 µM.

What about the TGI [7] of the same molecule?
Its TGI is over 100 µM.

What about the TGI [8] of the same molecule?
Its TGI is over 100 µM.

What about the TGI [9] of the same molecule?
The TGI was over 100 µM.
